Seven compounds from PubChem BioAssay (NCI) can be followed below.

What all share (assay): NCI tumour cell line growth inhibition, 48 h
For assay [1], the system named is MCF7 breast.
The test system of assay [2] is MDA-MB-231 breast.
In assay [3] the test system is MDA-MB-435.
Assay [4] relates to MDA-N.
The test system of assay [5] is PC-3 prostate.
In assay [6] the test system is RPMI-8226 leukemia.
For assay [7], the system named is SNB-19 CNS.
In assay [8] the test system is HS 578T breast.
The subject of assay [9] is MALME-3M melanoma.
For assay [10], the system named is NCI/ADR-RES ovarian.
Assay [11] has as its system NCI-H226 lung.

Each structure is given as a SMILES string. Converted amounts (≈) assume the structure as drawn.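 96-well plates; 48 h exposure; 5 concentrations. Endpoints by linear interpolation between flanking doses. Not reached: highest tested concentration assigned. Abbreviation: GI50, concentration required for 50% inhibition of growth. TGI is the concentration that stops growth completely.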 Bounds are passed on as bounds.

For the compound `CCOC(=O)c1csc(NC(=O)C(C)N2CCCC2)n1` (stereo not drawn), the TGI in assay [1], in [2], in [3], in [4], in [5] and in assay [6] was more than 100 µM each time. The TGI in [7] is more than 100 µM.
For `O=C1NN(C2=NNC3(C(=O)N2)c2ccccc2-c2ccccc23)C(c2ccccc2)=N/C1=C/c1ccc(Cl)cc1`, the GI50 in [8] is 47.7 µg/mL (≈ 87.6 µM); in [9], 89.9 µg/mL (≈ 165 µM); in assay [1], 35.8 µg/mL (≈ 65.7 µM); in [2], 47.9 µg/mL (≈ 87.8 µM); in [3] it was 44.2 µg/mL (≈ 81.2 µM); in assay [10], 53.2 µg/mL (≈ 97.7 µM). In addition, the figures for the GI50 in assay [5], in assay [6] and in assay [7] were 44.7 µg/mL (≈ 82.1 µM), 63.6 µg/mL (≈ 117 µM) and 28.3 µg/mL (≈ 52 µM), respectively. For the same compound, the TGI is more than 150 µg/mL in [8]; more than 150 µg/mL in assay [9]; 144 µg/mL in assay [1]; more than 150 µg/mL in assay [2]; more than 150 µg/mL in assay [3]; more than 150 µg/mL in [10]. In addition, the TGI was more than 150 µg/mL in [5], more than 150 µg/mL in assay [6] and 59.9 µg/mL in assay [7].
As for `CC(=O)NNc1nc(C)c(C(=O)NNC(=O)C(=O)Nc2ccc([N+](=O)[O-])cc2[N+](=O)[O-])s1`, the TGI in [11], in assay [6] and in assay [7] was more than 100 µM in each case.
Regarding `COC(=O)C(Cc1cn(C(C)n2cc(CC(NC(C)=O)C(=O)OC)c3ccccc32)c2ccccc12)NC(C)=O` (stereo not drawn), the TGI in assay [8], in [9], in assay [2], in assay [3], in assay [4] and in assay [5] was more than 100 µM each time. The TGI in assay [6] and in [7] was more than 100 µM throughout.
Consider `CO/N=C1\CC(NC(=O)C(F)(F)F)c2ccsc21` (stereo not drawn), for which the TGI in assay [8], in assay [9], in assay [1], in [2], in assay [3] and in [4] was more than 100 µM throughout. For the same compound, the TGI in assay [11], in [10] and in assay [5] was more than 100 µM each time.
In the case of `COC(=O)CC(=O)OSc1ccccc1`, the TGI in [9] was more than 100 µM; in assay [11] it was 64 µM; in [6], more than 100 µM; in assay [7], more than 100 µM.
Turning to `O=c1oc2ccccc2c(O)c1Cc1ccc(Cc2c(O)c3ccccc3oc2=O)cc1`, the TGI in [8], in [9], in assay [1], in assay [2], in [3] and in [4] was more than 100 µM throughout. Further, the TGI in [11], in assay [10] and in [5] was more than 100 µM in each case.
